Assay results as given in ChEMBL document CHEMBL3639218, “Bicyclic heterocycle compounds and their uses in therapy” (2015).

Legend:
[1] = molecular target: Baculoviral IAP repeat-containing protein 2 (Homo sapiens, UniProt Q13490); assay: In vitro Competitive Displacement Binding Assays : Modified SMAC peptides and compounds were tested for their ability to displace the fluorescent tracer from either XIAP, clAP-1 or clAP-2. BIR3 domains of clAP-1 , clAP-2 and XIAP were incubated with test compounds or SMAC based peptides and their respective peptide probes (Peptide Protein Research) in assay buffer (50mM Hepes pH 7.5, […] Tween-
[2] = molecular target: E3 ubiquitin-protein ligase XIAP (Homo sapiens, UniProt P98170); assay: as above

IC50 [1] [µM]	IC50 [2] [µM]	SMILES
40	–	C[C@@H]1CN(CC(=O)N2CCc3ccc(Br)cc32)CCN1
–	2.4	CC(C)[C@H]1CN[C@H](C)CN1CC(=O)N1CCc2ccc(Br)cc21
0.016	–	COC[C@H]1CN[C@H](C)CN1CC(=O)N1CC(C)(C)c2cnc(CCC(C)C)cc21
